How the values were obtained:
Format in all cases: functional
Mus musculus [1] = species: Mus musculus; assay: Effect on whole mouse brain 5-HT acid level after 1 day (control = 100+/-2)
Mus musculus [2] = species: Mus musculus; assay: Effect on whole mouse brain 5-HT acid level after 1 week (control = 100+/-9)
Mus musculus [3] = species: Mus musculus; assay: Effect on whole mouse brain 5-HT acid level after 3h (control = 100+/-6)
Mus musculus [4] = species: Mus musculus; assay: Effect on whole mouse brain 5-hydroxyindoleacetic acid level after 1 day (control = 100+/-5)
Mus musculus [5] = species: Mus musculus; assay: Effect on whole mouse brain 5-hydroxyindoleacetic acid level after 1 week (control = 100+/-10)
Mus musculus [6] = species: Mus musculus; assay: Effect on whole mouse brain DOPAC level after 1 day (control = 100+/-6)
Mus musculus [7] = species: Mus musculus; assay: Effect on whole mouse brain DOPAC level after 1 week (control = 100+/-9)
Mus musculus [8] = species: Mus musculus; assay: Effect on whole mouse brain DOPAC level after 3h (control = 100+/-11)
Mus musculus [9] = species: Mus musculus; assay: Effect on whole mouse brain acetylcholine level after 1 day (control = 100+/-5)
Mus musculus [10] = species: Mus musculus; assay: Effect on whole mouse brain acetylcholine level after 1 week (control = 100+/-13)
Mus musculus [11] = species: Mus musculus; assay: Effect on whole mouse brain acetylcholine level after 3h (control = 100+/-5)
Mus musculus [12] = species: Mus musculus; assay: Effect on whole mouse brain choline level after 1 day (control = 100+/-9)
Mus musculus [13] = species: Mus musculus; assay: Effect on whole mouse brain choline level after 1 week (control = 100+/-9)
Mus musculus [14] = species: Mus musculus; assay: Effect on whole mouse brain choline level after 3h (control = 100+/-5)
Mus musculus [15] = species: Mus musculus; assay: Effect on whole mouse brain dopamine level after 1 week (control = 100+/-10)
Mus musculus [16] = species: Mus musculus; assay: Effect on whole mouse brain dopamine level after 3h (control = 100+/-3)
Mus musculus [17] = species: Mus musculus; assay: Effect on whole mouse brain homovanillic acid level after 1 day (control = 100+/-3)
Mus musculus [18] = species: Mus musculus; assay: Effect on whole mouse brain homovanillic acid level after 3h (control = 100+/-6)
Mus musculus [19] = species: Mus musculus; assay: Effect on whole mouse brain norepinephrine level after 1 day (control = 100+/-3)
Mus musculus [20] = species: Mus musculus; assay: Effect on whole mouse brain norepinephrine level after 1 week (control = 100+/-10)
Mus musculus [21] = species: Mus musculus; assay: Effect on whole mouse brain norepinephrine level after 3h (control = 100+/-8)
Mus musculus [22] = species: Mus musculus; assay: Effect on whole mouse brain 5-hydroxyindoleacetic acid level after 3h (control = 100+/-14)
Mus musculus [23] = species: Mus musculus; assay: Effect on whole mouse brain homovanillic acid level after 1 week (control = 100+/-5)
Mus musculus [24] = species: Mus musculus; assay: Effect on whole mouse brain 5-HT acid level after 1 day (control = 100+/-3)
Mus musculus [25] = species: Mus musculus; assay: Effect on whole mouse brain 5-hydroxyindoleacetic acid level after 1 day (control = 100+/-6)
Mus musculus [26] = species: Mus musculus; assay: Effect on whole mouse brain DOPAC level after 1 day (control = 100+/-4)
Mus musculus [27] = species: Mus musculus; assay: Effect on whole mouse brain acetylcholine level after 1 day (control = 100+/-8)
Mus musculus [28] = species: Mus musculus; assay: Effect on whole mouse brain choline level after 1 day (control = 100+/-1)
Mus musculus [29] = species: Mus musculus; assay: Effect on whole mouse brain dopamine level after 1 day (control = 100+/-3)
Mus musculus [30] = species: Mus musculus; assay: Effect on whole mouse brain homovanillic acid level after 1 day (control = 100+/-4)
Mus musculus [31] = species: Mus musculus; assay: Effect on whole mouse brain norepinephrine level after 1 day (control = 100+/-5)

CC1NCCc2c1[nH]c1ccc(O)c(-c3c(O)ccc4[nH]c5c(c34)CCNC5C)c21 (centres undefined)
Control (Mus musculus [1]): 111%
Control (Mus musculus [2]): 103%
Control (Mus musculus [3]): 107%
Control (Mus musculus [4]): 135%
Control (Mus musculus [5]): 99%
Control (Mus musculus [6]): 93%
Control (Mus musculus [7]): 96%
Control (Mus musculus [8]): 81%
Control (Mus musculus [9]): 78%
Control (Mus musculus [10]): 94%
Control (Mus musculus [11]): 98%
Control (Mus musculus [12]): 97%
Control (Mus musculus [13]): 107%
Control (Mus musculus [14]): 83%
Control (Mus musculus [15]): 98%
Control (Mus musculus [16]): 98%
Control (Mus musculus [17]): 107%
Control (Mus musculus [18]): 90%
Control (Mus musculus [19]): 105%
Control (Mus musculus [20]): 111%
Control (Mus musculus [21]): 93%
Control (Mus musculus [22]): 86%
Control (Mus musculus [23]): 100%

CC1NCCc2c1[nH]c1ccc(O)c(-c3c(O)ccc4[nH]c5c(c34)CCNC5C)c21 (stereo in doubt; 5)
Control (Mus musculus [24]): 94%
Control (Mus musculus [25]): 146%
Control (Mus musculus [26]): 97%
Control (Mus musculus [27]): 87%
Control (Mus musculus [28]): 77%
Control (Mus musculus [29]): 90%
Control (Mus musculus [30]): 115%
Control (Mus musculus [31]): 102%

CC1NCCc2c1[nH]c1ccc(O)c(-c3c(O)ccc4[nH]c5c(c34)CCNC5C)c21 (stereo in doubt; 6)
Control (Mus musculus [24]): 107%
Control (Mus musculus [25]): 163%
Control (Mus musculus [26]): 101%
Control (Mus musculus [27]): 73%
Control (Mus musculus [28]): 97%
Control (Mus musculus [29]): 96%
Control (Mus musculus [30]): 132%
Control (Mus musculus [31]): 104%

Reference: ChEMBL document CHEMBL1126027, “Oxidation chemistry and biochemistry of the central mammalian alkaloid 1-methyl-6-hydroxy-1,2,3,4-tetrahydro-beta-carboline” (1992)
